For one compound, IC50 results are on record in BindingDB's records for doi:10.1016/j.jmb.2007.01.004 (Astex Therapeutics, 2007).

Each structure is given as a SMILES string. pIC50: −log10 of the molar value.

The test has as its target cAMP-dependent protein kinase catalytic subunit alpha (Bos taurus, UniProt P00517). Put plainly: PKA In Vitro Enzyme Assay. The settings on record: pH 7.2; 22 °C. How it is done: The recombinant alpha catalytic subunit of bovine PKA was assayed with a peptide substrate and test compound in the presence of 40 uM ATP/ [gamma-33P]ATP in 96-well plates. […] IC50 values were determined from an eight-point concentration range run in duplicate and calculated in GraphPad Prism 4.00.

Turning to `Cc1n[nH]c2ccc(-c3cncc(OC[C@@H](N)Cc4c[nH]c5ccccc45)c3)cc12` [5-{5-[(2S)-2-amino-3-(1H-indol-3-yl)propoxy]pyridin-3-yl}-3-methyl-1H-indazole], the pIC50 (usually −log10 of the IC50, conventionally taken in molar units) is 7.57.
